Like-named read-outs stand apart in the source and are kept apart here.
How the values were obtained:
[1] = tested on: schizophrenic patients; details: compared to placebo, P<0.001 at week 4; cited from earlier work
[2] = tested on: C57Bl6/J mice; details: forced swim test; cited from earlier work
[3] = tested on: Aβ-induced neurodegeneration; details: cited from earlier work
[4] = tested on: tumors injected into nude mice; details: compared with controls; cited from earlier work
[5] = tested on: central mGlu2 and mGlu3 receptors; details: in vivo; cited from earlier work
[6] = tested on: Helpless (H) mice; details: genetic model of depression; cited from earlier work
[7] = tested on: glioma stem cells (GSC); details: in vitro; cited from earlier work
[8] = target: rat mGlu3 (Rattus norvegicus (Rat), UniProt P31422); test: mGlu3 Ca2+ flux assay; type: cell-based; details: for remaining activity at 30 µM: amplitude of response at 30 μM test compound as % of maximal response to glutamate, read-out: rat mGlu3 Glu max (%)
Chain of rat mGlu3 (P31422 23-879): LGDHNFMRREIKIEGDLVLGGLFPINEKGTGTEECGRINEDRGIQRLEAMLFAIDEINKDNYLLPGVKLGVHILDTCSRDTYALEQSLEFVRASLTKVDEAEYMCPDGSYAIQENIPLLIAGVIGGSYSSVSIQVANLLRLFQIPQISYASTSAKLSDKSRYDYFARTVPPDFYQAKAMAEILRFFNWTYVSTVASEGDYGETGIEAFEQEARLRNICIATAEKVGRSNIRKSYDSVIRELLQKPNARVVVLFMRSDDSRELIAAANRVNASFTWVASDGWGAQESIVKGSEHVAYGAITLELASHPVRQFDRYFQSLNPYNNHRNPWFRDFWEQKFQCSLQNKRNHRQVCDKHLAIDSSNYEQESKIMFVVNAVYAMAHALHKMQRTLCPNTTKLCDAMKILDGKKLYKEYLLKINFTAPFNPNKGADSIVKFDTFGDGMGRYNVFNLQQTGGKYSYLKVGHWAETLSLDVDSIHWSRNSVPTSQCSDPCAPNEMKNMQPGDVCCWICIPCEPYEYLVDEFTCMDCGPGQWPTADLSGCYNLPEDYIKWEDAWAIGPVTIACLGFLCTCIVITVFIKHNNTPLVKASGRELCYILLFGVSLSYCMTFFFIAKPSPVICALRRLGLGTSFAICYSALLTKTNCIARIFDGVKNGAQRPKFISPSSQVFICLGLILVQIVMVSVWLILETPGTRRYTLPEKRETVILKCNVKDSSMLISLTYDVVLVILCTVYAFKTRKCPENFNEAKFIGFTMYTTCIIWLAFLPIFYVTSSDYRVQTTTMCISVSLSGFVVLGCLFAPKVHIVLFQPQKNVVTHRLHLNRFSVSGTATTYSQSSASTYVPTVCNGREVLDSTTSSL
Summary of the method: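 This calcium mobilization assay used rat mGlu3 cells cultured overnight (37° C., 5% CO2) and read on the FDSS7000 after a 10 minute room-temperature incubation in 20 μL assay buffer. Each of 360 readings per well was divided by its initial value (F/F0). Potency came from fitting normalized responses against log concentration with an unconstrained 4 parameter logistic equation, weighting triplicate points equally.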

[9] = target: mGlu6 (Homo sapiens (Human), UniProt O15303); test: mGlu selectivity assay: effect of a single concentration on the glutamate concentration-response curve; type: cell-based; details: tested at 10 μM
Chain of mGlu6 (O15303 25-877): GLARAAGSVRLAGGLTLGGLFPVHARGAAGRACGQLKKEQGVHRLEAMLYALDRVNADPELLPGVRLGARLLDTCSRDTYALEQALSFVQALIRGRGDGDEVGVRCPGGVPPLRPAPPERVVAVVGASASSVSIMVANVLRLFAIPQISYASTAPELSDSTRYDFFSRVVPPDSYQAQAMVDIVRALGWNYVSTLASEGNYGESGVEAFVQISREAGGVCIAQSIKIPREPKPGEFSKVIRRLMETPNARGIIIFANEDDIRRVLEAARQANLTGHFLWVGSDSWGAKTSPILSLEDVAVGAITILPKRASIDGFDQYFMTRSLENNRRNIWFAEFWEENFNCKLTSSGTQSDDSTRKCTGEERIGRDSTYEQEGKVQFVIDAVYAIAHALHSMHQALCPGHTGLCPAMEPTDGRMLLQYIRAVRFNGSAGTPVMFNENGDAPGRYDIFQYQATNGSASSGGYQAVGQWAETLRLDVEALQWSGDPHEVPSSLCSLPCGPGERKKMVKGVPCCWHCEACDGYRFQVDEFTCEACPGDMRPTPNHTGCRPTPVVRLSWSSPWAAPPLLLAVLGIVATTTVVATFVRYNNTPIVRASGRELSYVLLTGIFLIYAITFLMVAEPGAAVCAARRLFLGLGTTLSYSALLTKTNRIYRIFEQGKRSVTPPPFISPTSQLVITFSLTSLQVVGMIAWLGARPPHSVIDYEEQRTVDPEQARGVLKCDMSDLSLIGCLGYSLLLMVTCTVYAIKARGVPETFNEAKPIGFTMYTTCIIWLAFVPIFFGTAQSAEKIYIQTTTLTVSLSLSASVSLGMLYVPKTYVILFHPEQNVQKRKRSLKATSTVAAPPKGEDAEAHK
Description: (§1) Selectivity versus other mGlus can also be assessed by evaluating the effect of a single concentration of compound on the glutamate concentration-response curve (CRC) in cell lines expressing the mGlu of interest.

[10] = tested on: mGlu1; test: as above; type: cell-based; details: tested at 10 μM
Description: as §1

[11] = tested on: mGlu2; test: as above; type: cell-based; details: tested at 10 μM
Description: as §1

[12] = tested on: mGlu8; test: as above; type: cell-based; details: tested at 10 μM
Description: as §1

[13] = tested on: mGlu4; test: as above; type: cell-based; details: tested at 10 μM
Description: as §1

[14] = tested on: mGlu7; test: as above; type: cell-based; details: tested at 10 μM
Description: as §1

[15] = target: rat mGlu5 (Rattus norvegicus (Rat), UniProt P31424); test: mGlu5 Ca2+ flux assay; type: cell-based; details: for Fold selectivity (mGlu3 vs. mGlu5): ratio of rat mGlu5 EC50 or IC50 to rat mGlu3 IC50; for Emax at 30 µM: PAM, amplitude of response at 30 μM test compound as % of maximal response to glutamate, read-out: rat mGlu5 Glu max (%)
Chain of rat mGlu5 (P31424 21-1203): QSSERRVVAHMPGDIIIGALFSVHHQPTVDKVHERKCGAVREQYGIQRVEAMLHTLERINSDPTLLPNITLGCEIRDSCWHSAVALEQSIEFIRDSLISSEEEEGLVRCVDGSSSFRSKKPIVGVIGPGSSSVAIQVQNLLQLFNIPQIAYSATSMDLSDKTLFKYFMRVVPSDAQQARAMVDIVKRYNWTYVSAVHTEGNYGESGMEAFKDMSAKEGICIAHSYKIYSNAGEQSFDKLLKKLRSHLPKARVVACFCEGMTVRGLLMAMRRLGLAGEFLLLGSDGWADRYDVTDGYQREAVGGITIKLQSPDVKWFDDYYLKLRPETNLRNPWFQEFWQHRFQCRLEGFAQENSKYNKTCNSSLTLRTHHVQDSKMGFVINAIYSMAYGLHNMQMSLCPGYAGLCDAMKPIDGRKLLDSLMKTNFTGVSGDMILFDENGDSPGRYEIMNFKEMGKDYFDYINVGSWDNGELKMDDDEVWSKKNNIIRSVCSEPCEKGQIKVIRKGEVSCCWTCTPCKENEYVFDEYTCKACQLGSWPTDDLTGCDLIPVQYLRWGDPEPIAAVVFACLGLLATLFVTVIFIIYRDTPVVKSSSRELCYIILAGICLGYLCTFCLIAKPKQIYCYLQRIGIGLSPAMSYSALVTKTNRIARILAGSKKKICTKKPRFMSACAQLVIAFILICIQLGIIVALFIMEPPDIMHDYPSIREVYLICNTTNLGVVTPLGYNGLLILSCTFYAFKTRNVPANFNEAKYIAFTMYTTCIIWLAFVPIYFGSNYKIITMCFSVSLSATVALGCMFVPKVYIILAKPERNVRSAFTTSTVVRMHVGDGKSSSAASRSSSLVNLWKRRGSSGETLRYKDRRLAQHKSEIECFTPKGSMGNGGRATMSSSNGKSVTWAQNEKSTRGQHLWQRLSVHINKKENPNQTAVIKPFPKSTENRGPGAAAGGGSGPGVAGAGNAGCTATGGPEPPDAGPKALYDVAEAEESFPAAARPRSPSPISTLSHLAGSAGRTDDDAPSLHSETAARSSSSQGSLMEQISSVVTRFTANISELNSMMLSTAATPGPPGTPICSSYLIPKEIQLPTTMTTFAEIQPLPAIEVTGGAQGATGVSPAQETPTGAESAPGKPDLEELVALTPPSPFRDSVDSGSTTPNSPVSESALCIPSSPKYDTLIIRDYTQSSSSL
Summary of the method: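 Ca2+ flux read kinetically (FDSS7000) after overnight culture at 37° C/5% CO2 and a 5 min room-temperature buffer step following dye removal. Signals expressed per well as F/F0 and normalized to peak glutamate response; EC50 fitted by free 4-parameter logistic, three replicates per concentration equally weighted.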

[16] = read-out: rat mGlu5 EC50 or IC50
[17] = NAM potency, decrease of glutamate EC80 response, >30,000 = no measurable activity, >10,000 = no plateau, read-out: rat mGlu3 IC50

| SMILES | remaining activity at 30 µM [8] [%] | Fold selectivity (mGlu3 vs. mGlu5) [15] | EC50 [15, 16] [µM] | IC50 [8, 17] [µM] | other results |
| --- | --- | --- | --- | --- | --- |
| N[C@@]1(C(=O)O)CS(=O)(=O)[C@H]2[C@H](C(=O)O)[C@H]21 [LY404039] | – | – | – | – | positive and negative symptoms of schizophrenia [1]: statistically significant improvements in both positive and negative symptoms |
| N[C@](CC1c2ccccc2Oc2ccccc21)(C(=O)O)[C@H]1C[C@@H]1C(=O)O [LY341495] | – | – | – | – | immobility time [2]: dose-dependently reduced immobility time; effect on Aβ-induced neurodegeneration [3]: prevented; growth rate of tumors [4]: reduced; volume of tumors [4]: reduced; reversal of hypolocomotor effect of LY379268 [5]: achieved the same result; activity in the tail suspension test [6]: active; proliferation rates [7]: decreased in a time-dependent manner; proportion of cells in S phase [7]: decreased in a time-dependent manner |
| N#CCc1ccc(NCc2cc3n(n2)CCN(c2ccc(F)cc2)C3=O)cc1 [Compound 26, 2-(4-(((5-(4-fluorophenyl)-4-oxo-4,5,6,7-tetrahydropyrazolo[1,5-a]pyrazin-2-yl)methyl)amino)phenyl)acetonitrile] | 1.01 | >33 | > 30 | – | IC50 ([8]; read-out: rat mGlu3 IC50): 0.89 µM; activity against mGlu6 [9]: inactive; activity against mGlu1 [10]: inactive; activity against mGlu2 [11]: inactive; activity against mGlu8 [12]: inactive; activity against mGlu4 [13]: inactive; activity against mGlu7 [14]: inactive |
| Cc1cc(-c2cccc(C3=Nc4cc(C)c(C(F)(F)F)cc4NC(=O)C3)c2)cc(C)n1 [RO4491533] | – | – | – | – | immobility time [2]: dose-dependently reduced immobility time; reversal of hypolocomotor effect of LY379268 [5]: reversed the hypolocomotor effect; activity in the tail suspension test [6]: active |
| CCS(=O)(=O)N(Cc1cccnc1)c1cccc(-c2ccc(C#N)cc2)c1 [LY566332] | – | – | – | – | effect on Aβ-induced neurodegeneration [3]: amplified Aβ-induced neurodegeneration |
| COc1ccc(N(C)Cc2cc3n(n2)CCN(c2ccc(F)cc2)C3=O)cc1 [Compound 92, 5-(4-fluorophenyl)-2-(((4-methoxyphenyl)(methyl)amino)methyl)-6,7-dihydropyrazolo[1,5-a]pyrazin-4(5H)-one] | 1.39 | >30 | > 30 | 0.986 | activity against mGlu6 [9]: inactive; activity against mGlu1 [10]: inactive; activity against mGlu2 [11]: inactive; activity against mGlu8 [12]: inactive; activity against mGlu4 [13]: inactive; activity against mGlu7 [14]: inactive |
| O=C1c2cc(CNc3ccc(OC(F)F)cc3F)nn2CCN1c1cccc(F)c1 [Compound 95, 2-(((4-(Difluoromethoxy)-2-fluorophenyl)amino)methyl)-5-(3-fluorophenyl)-6,7-dihydropyrazolo[1,5-a]pyrazin-4(5H)-one] | 3.43 | >17 | > 10 | 0.588 | Emax at 30 µM [15]: 31.1% |
| C[C@@H]1CN(c2ccc(F)cc2)C(=O)c2cc(CNc3ccc(F)cc3F)nn21 [Compound 75, (R)-2-(((2,4-difluorophenyl)amino)methyl)-5-(4-fluorophenyl)-7-methyl-6,7-dihydropyrazolo[1,5-a]pyrazin-4(5H)-one] | 2.66 | 7.56 | 5.83 | 0.771 | Emax at 30 µM [15]: 85.6% |
| Cc1ccc(NCc2cc3n(n2)CCN(c2ccc(F)cc2)C3=O)c(F)c1 [Compound 35, 2-(((2-fluoro-4-methylphenyl)amino)methyl)-5-(4-fluorophenyl)-6,7-dihydropyrazolo[1,5-a]pyrazin-4(5H)-one] | 1.68 | 5.97 | 4.77 | 0.799 | Emax at 30 µM [15]: 97.4% |
| O=C1c2cc(CNc3ccc(OC(F)F)cc3F)nn2CCN1c1cc(Cl)ccn1 [Compound 139, 5-(4-chloropyridin-2-yl)-2-(((4-(difluoromethoxy)-2-fluorophenyl)amino)methyl)-6,7-dihydropyrazolo[1,5-a]pyrazin-4(5H)-one] | 2.59 | >17 | > 30 | 1.76 | – |
| O=C1c2cc(CNc3ccc(OC(F)F)cc3F)nn2CCN1c1ccc(Cl)cn1 [Compound 148, 5-(5-chloropyridin-2-yl)-2-(((4-(difluoromethoxy)-2-fluorophenyl)amino)methyl)-6,7-dihydropyrazolo[1,5-a]pyrazin-4(5H)-one] | 3.97 | >32 | > 30 | 0.93 | – |
| COc1ccc(N(C)Cc2cc3n(n2)CCN(c2ccccc2F)C3=O)cc1 [Compound 105, 5-(2-fluorophenyl)-2-(((4-methoxyphenyl)(methyl)amino)methyl)-6,7-dihydropyrazolo[1,5-a]pyrazin-4(5H)-one] | 2.05 | >34 | > 30 | 0.871 | – |
| O=C1c2cc(CNc3cc(Cl)ccn3)nn2CCN1c1ccc(F)cc1 [Compound 164, 2-(((4-chloropyridin-2-yl)amino)methyl)-5-(4-fluorophenyl)-6,7-dihydropyrazolo[1,5-a]pyrazin-4(5H)-one] | 2.99 | >7.5 | > 10 | 1.32 | Emax at 30 µM [15]: 35.3% |
| CN(Cc1cc2n(n1)CCN(c1ccc(F)cc1)C2=O)c1ccc(C#N)cc1 [Compound 93, 4-(((5-(4-fluorophenyl)-4-oxo-4,5,6,7-tetrahydropyrazolo[1,5-a]pyrazin-2-yl)methyl)(methyl)amino)benzonitrile] | 1.47 | >8.8 | > 10 | 1.13 | Emax at 30 µM [15]: 57.2% |
| COc1ccc(N(C)Cc2cc3n(n2)CCN(c2cc(F)ccc2F)C3=O)cc1 [Compound 106, 5-(2,5-difluorophenyl)-2-(((4-methoxyphenyl)(methyl)amino)methyl)-6,7-dihydropyrazolo[1,5-a]pyrazin-4(5H)-one] | 0.79 | >29 | > 30 | – | IC50 ([8]; read-out: rat mGlu3 IC50): 1.02 µM |
| O=C1c2cc(CNc3c(F)cc(F)cc3F)nn2CCN1c1ccc(F)cc1 [Compound 33, 5-(4-fluorophenyl)-2-(((2,4,6-trifluorophenyl)amino)methyl)-6,7-dihydropyrazolo[1,5-a]pyrazin-4(5H)-one] | 1.82 | 0.87 | 1.11 | 1.27 | Emax at 30 µM [15]: 89.7% |
| Cc1ccnc(NCc2cc3n(n2)CCN(c2ccc(F)cc2)C3=O)c1 [Compound 161, 5-(4-fluorophenyl)-2-(((4-methylpyridin-2-yl)amino)methyl)-6,7-dihydropyrazolo[1,5-a]pyrazin-4(5H)-one] | 1.14 | >8.0 | > 30 | 3.75 | – |
| CCN(Cc1cc2n(n1)CCN(c1ccc(F)c(F)c1)C2=O)c1ccc(OC)cc1 [Compound 168, 5-(3,4-difluorophenyl)-2-((ethyl(4-methoxyphenyl)amino)methyl)-6,7-dihydropyrazolo[1,5-a]pyrazin-4(5H)-one] | 1.95 | >14 | > 30 | – | IC50 ([8]; read-out: rat mGlu3 IC50): 2.12 µM |
| COc1ccc(N(C)Cc2cc3n(n2)CCN(c2cccnc2)C3=O)cc1 [Compound 121, 2-(((4-methoxyphenyl)(methyl)amino)methyl)-5-(pyridin-3-yl)-6,7-dihydropyrazolo[1,5-a]pyrazin-4(5H)-one] | 0.66 | >6.3 | > 30 | 4.69 | – |
| COc1ccc(NCc2cc3n(n2)[C@@H](C)CN(c2ccc(F)cc2)C3=O)cc1 [Compound 63, (S)-5-(4-fluorophenyl)-2-(((4-methoxyphenyl)amino)methyl)-7-methyl-6,7-dihydropyrazolo[1,5-a]pyrazin-4(5H)-one] | -0.6 | >3.5 | > 30 | 8.37 | – |
| CN(Cc1cc2n(n1)CCN(c1ccc(F)cc1)C2=O)c1ccc(F)cc1 [drawing 32 X = NMe] | – | – | – | – | IC50 ([8]; Table 2 compounds with X = NMe, read-out: mGlu3 IC50): 0.467 µM; mGlu3 Glu max ([8]; Table 2 compounds with X = NMe, response at 30 μM compound as percentage of maximal glutamate response): 1%; EC50 ([15]; Table 2 compounds with X = NMe, read-out: mGlu5 EC50): > 30 µM |
